Two compounds from patent US20200179335A1, “TREATMENT OF DISEASES ASSOCIATED WITH A DYSREGULATION OF THE mTOR PATHWAY” (BIOCODEX, priority 2017, published 2020) can be followed below.

In experiment [1] the test system is Akt (P13K-Akt, upstream modulator of the mTOR pathway). As to the kind of experiment: Western blot of Akt phosphorylation in hippocampus of pentylenetetrazol-treated rats. The format is in vivo, rat. As to conditions: for ratio of phosphorylated Akt related to total Akt: hippocampus of adult male Sprague-Dawley rats, pretreatment i.p. (stiripentol 300 mg/kg or wortmannin 2.4 mg/kg) 30 min before pentylenetetrazol 80 mg/kg s.c., sacrifice 30 min after PTZ, tween-PTZ control 1.81. Here is the method: (§1) The mTOR pathway has been studied at two levels (i) an upstream level of regulation with the P13K-Akt, a modulator of the mTOR pathway and (ii) a downstream level with the ribosomal protein S6, the substrate of the S6 kinase, a direct downstream effector of the mTOR pathway. Adult male Sprague-Dawley rats (Janvier, 220-250 g, n=24, 7 weeks old) were used in this study. They were housed 2 per cage (Techniplast ref. 1291), and maintained in a 12 h light/dark cycle (light ON at 7 AM). Food and water were provided ad libitum. The experiments were conducted in accordance with the European Recommendations (directive 2010/63/EU) for the use and care of laboratory animals. The experimental protocol has been approved by the ethics committee. Pentylenetetrazol (batch MKB[…], SIGMA), 80 mg/kg in 0.9% NaCl was administered subcutaneously in an injection volume of 5 mL/kg. Wortmannin (Sigma), 2.4 mg/kg in DMSO 10% v/v in 0.9% NaCl or Stiripentol (Biocodex), 300 mg/kg in tween80 5% v/v, were injected intraperitoneally (10 mL/kg) 30 min before pentylenetetrazol administration. […] The protein concentration of each sample was determined by a BCA protein assay. […] Signals were detected by enzyme chemiluminescence (Vilber Lourmat Fusion FX5 system) and quantitatively analyzed with the Bio-1 D software (Vilber Lourmat, France). […] Each membrane was also stripped (RestoreTM western blot stripping buffer, Thermoscientific) and reprobed to detect beta-actin protein levels, a control for the total quantity of protein deposited. […] The difference between groups was assessed by a two-way ANOVA followed by a Holm-Sidak multiple comparison (factor pretreatment=tween or STP, factor treatment=NaCl or PTZ). The effect of wortmaninn was assessed by a t-test comparison between tween-pentylenetetrazol (n=5) versus wortmannin-pentylenetetrazol groups (n=3).
(In western blotting, separated proteins are transferred to a membrane and probed.)

Experiment [2] deals with ribosomal protein S6 (downstream effector of the mTOR pathway). As to the kind of experiment: Western blot of S6 protein phosphorylation in hippocampus of pentylenetetrazol-treated rats. As to conditions: for ratio of phosphorylated S6 related to total S6 protein: hippocampus of adult male Sprague-Dawley rats, pretreatment i.p. (stiripentol 300 mg/kg or wortmannin 2.4 mg/kg) 30 min before pentylenetetrazol 80 mg/kg s.c., sacrifice 30 min after PTZ, Veh-PTZ control 0.79. Format: in vivo, rat. Here is the method: as §1

The mark [3] stands for this setting: hippocampus, rats pretreated i.p. 30 min before pentylenetetrazol 80 mg/kg s.c.

Regarding `CC(C)(C)C(O)/C=C/c1ccc2c(c1)OCO2` (racemic) [stiripentol, 1-penten-3-ol, 1-(1,3-benzodioxol)-4,4-dimethyl], the “ratio of phosphorylated Akt related to total Akt” value in experiment [1] is 2.46. Besides, the “band of phosphorylated Akt in western blot (FIG. 1)” value in experiment [1] (setting [3]) was “strong band”. Also, in experiment [2], the “ratio of phosphorylated S6 related to total S6 protein” value is 0.36. Besides, the “band of phosphorylated S6 protein in western blot (FIG. 3)” value in experiment [2] (setting [3]) was “No band was visible”.
`COC[C@H]1OC(=O)c2coc3c2[C@@]1(C)C1=C(C3=O)[C@@H]2CCC(=O)[C@@]2(C)C[C@H]1OC(C)=O` [wortmannin]: the “ratio of phosphorylated Akt related to total Akt” value in experiment [1] was 0.40. For the same compound, in experiment [2], the “ratio of phosphorylated S6 related to total S6 protein” value was 0.30.
